According to patent US20040235830A1, “Substituted cyclohexane derivatives and the use thereof in medicaments for treating cardiovascular diseases” (priority 2000, published 2004):

Tested on: Langendorff rat heart
Assay: Langendorff rat heart (isolated perfused heart, coronary perfusion pressure)
Settings: constant-volume (10 ml/min) coronary perfusion, concentration from which perfusion pressure decreases (= relaxation of the coronary arteries), read-out: Decrease in the perfusion pressure from:
Procedure: The heart is rapidly removed after opening the chest cavity of anesthetized rats and is introduced into a conventional Langendorff apparatus. The coronary arteries are subjected to constant-volume (10 ml/min) perfusion, and the perfusion pressure arising thereby is recorded via an appropriate pressure transducer. A decrease in the perfusion pressure in this arrangement corresponds to a relaxation of the coronary arteries. At the same time, the pressure developed by the heart during each contraction is measured via a balloon introduced into the left ventricle, and a further pressure transducer. The rate at which the isolated heart beats is found by calculation from the number of contractions per unit time.

## CN(Cc1ccc([C@H]2CCCC[C@@H]2C(=O)N[C@@H](CO)c2ccccc2)cc1)c1ccccc1 [Example 21]
  minimal effective concentration: 0.001 µM

## COCCN(Cc1ccc(C2CCCCC2C(=O)NC(CO)c2ccccc2)cc1)C(=O)Nc1ccccc1 (stereo not drawn) [Example 80]
  minimal effective concentration: 1 µM

## C[C@H](NC(=O)[C@H]1CCCCC1c1ccc(C(=O)N(C)C(C)(C)c2ccccc2)cc1)c1ccccc1 (stereo in doubt) [Example 177, N-Methyl-N-(1-methyl-1-phenylethyl)-4-[(1R,2S)-2-({[(1S)-1-phenylethyl]-amino}carbonyl)cyclohexyl]benzamide]
  minimal effective concentration: 0.01 µM

## C[C@H](NC(=O)[C@H]1CCCC[C@@H]1c1ccc(CN(C(=O)N2CCCC2)c2ccccc2)cc1)c1ccccc1 [Example 7]
  minimal effective concentration: 0.1 µM

## O=C(NC(CO)c1ccccc1)C1CCCCC1c1ccc(CN(C(=O)Oc2ccccc2)C2CC2)cc1 (stereo not drawn) [Example 40]
  minimal effective concentration: 0.01 µM

## COCC(NC(=O)[C@H]1CCCC[C@@H]1c1ccc(CN(C(=O)Oc2ccccc2)C2CC2)cc1)c1ccccc1 (stereo partly drawn) [Example 168]
  minimal effective concentration: 0.01 µM

## C[C@H](NC(=O)[C@H]1CCCC[C@@H]1c1ccc(COc2ccccc2)cc1)c1ccccc1 [Example 210, (1S,2S)-2-(4-[Phenoxymethyl]phenyl)-N-[(1S)-1-phenylethyl]cyclohexane-carboxamide]
  minimal effective concentration: 0.001 µM

## C[C@H](NC(=O)[C@H]1CCCC[C@@H]1c1ccc(CN(C)C(C)(C)c2ccccc2)cc1)c1ccccc1 [Example 123, (1S,2S)-2-(4-{[Dimethylbenzyl(methyl)amino]methyl}phenyl)-N-[(1S)-1-phenylethyl]cyclohexanecarboxamide]
  minimal effective concentration: 0.01 µM

## O=C(N[C@@H](CO)c1ccccc1)[C@H]1CCCC[C@@H]1c1ccc(CN(C(=O)N2CCCCC2)c2ccccc2)cc1 [Example 1, N-[4-((1S,2S)-2-{[((1R)-2-Hydroxy-1-phenylethyl)amino]carbonyl}cyclohexyl)-benzyl]-N-phenyl-1-piperidinecarboxamide]
  minimal effective concentration: 1 µM
